Source: patent US9783543B2, “Aminoimidazopyridazines” (BAYER PHARMA AKTIENGESELLSCHAFT, priority 2012, dated 2017)
Where two headings read alike, the source gives them in different places.

How the values were obtained:
human full-lengt MKNK1 = human full-lengt MKNK1 (Homo sapiens (Human), UniProt Q9BUB5, T344D); test: MKNK1 kinase assay (TR-FRET, 10 μM ATP); format: biochemical
Source text: MKNK1-inhibitory activity of compounds of the present invention was quantified employing the MKNK1 TR-FRET assay as described in the following paragraphs.
(§1) A recombinant fusion protein of Glutathione-S-Transferase (GST, N-terminally) and human full-lengt MKNK1 (amino acids 1-424 and T344D of accession number BAA 19885.1), expressed in insect cells using baculovirus expression system and purified via glutathione sepharose affinity chromatography, was purchased from Carna Biosciences (product no 02-145) and used as enzyme. As substrate for the kinase reaction the biotinylated peptide biotin-Ahx-[…] (C-terminus in amide form) was used which can be purchased e.g. form the company Biosyntan (Berlin-Buch, Germany).
(§2) For the assay 50 nL of a 100 fold concentrated solution of the test compound in DMSO was pipetted into a black low volume 384 well microtiter plate (Greiner Bio-One, Frickenhausen, Germany), 2 μL of a solution of MKNK1 in aqueous assay buffer [50 mM HEPES pH 7.5, 5 mM magnesium chloride, 1.0 mM dithiothreitol, 0.005% (v/v) Nonidet-P40 (Sigma)] was added and the mixture was incubated for 15 min at 22° C. to allow pre-binding of the test compounds to the enzyme before the start of the kinase reaction. Then the kinase reaction was started by the addition of 3 μL of a solution of adenosine-tri-phosphate (ATP, 16.7 μM=>final conc. in the 5 μL assay volume is 10 μM) and substrate (0.1 μM=>final conc. in the 5 μL assay volume is 0.06 μM) in assay buffer and the resulting mixture was incubated for a reaction time of 45 min at 22° C. The concentration of MKNK1 was adjusted depending of the activity of the enzyme lot and was chosen appropriate to have the assay in the linear range, typical concentrations were in the range of 0.05 μg/ml. The reaction was stopped by the addition of 5 μL of a solution of TR-FRET detection reagents (5 nM streptavidine-XL665 [Cisbio Bioassays, Codolet, France] and 1 nM anti-ribosomal protein S6 (pSer236)-antibody from Invitrogen [#44921G] and 1 nM LANCE EU-W1024 labeled ProteinG [Perkin-Elmer, product no. AD0071]) in an aqueous EDTA-solution (100 mM EDTA, 0.1% (w/v) bovine serum albumin in 50 mM HEPES pH 7.5).
(§3) The resulting mixture was incubated for 1 h at 22° C. to allow the formation of complex between the phosphorylated biotinylated peptide and the detection reagents. Subsequently the amount of phosphorylated substrate was evaluated by measurement of the resonance energy transfer from the Eu-chelate to the streptavidine-XL. Therefore, the fluorescence emissions at 620 nm and 665 nm after excitation at 350 nm were measured in a TR-FRET reader, e.g. a Rubystar (BMG Labtechnologies, Offenburg, Germany) or a Viewlux (Perkin-Elmer). The ratio of the emissions at 665 nm and at 622 nm was taken as the measure for the amount of phosphorylated substrate.

human full-length MKNK1 = human full-length MKNK1 (Homo sapiens (Human), UniProt Q9BUB5, T344D); test: MKNK1 kinase high ATP assay (TR-FRET, 2 mM ATP); format: biochemical
Method: MKNK1 Kinase High ATP Assay
MKNK1-inhibitory activity at high ATP of compounds of the present invention after their preincubation with MKNK1 was quantified employing the TR-FRET-based MKNK1 high ATP assay as described in the following paragraphs.
as §1, with “human full-length” for “human full-lengt”, “was used,” for “was used”, “e.g. from” for “e.g. form”
as §2, with “3.3 mM=>final” for “16.7 μM=>final”, “2 mM)” for “10 μM)”, “30” for “45”, “0.003 μg/mL.” for “0.05 μg/ml.”
as §3

[1] = read-out: IC50 MKNK1 (10 μM ATP), 15 min preincubation, GST-MKNK1 T344D
[2] = read-out: IC50 MKNK1 (2 mM ATP), 15 min preincubation, GST-MKNK1 T344D
[3] = 15 min preincubation, GST-MKNK1 T344D

Sequence of human full-length MKNK1 (Q9BUB5 other isoform, or with tags, fused parts or gaps T344D): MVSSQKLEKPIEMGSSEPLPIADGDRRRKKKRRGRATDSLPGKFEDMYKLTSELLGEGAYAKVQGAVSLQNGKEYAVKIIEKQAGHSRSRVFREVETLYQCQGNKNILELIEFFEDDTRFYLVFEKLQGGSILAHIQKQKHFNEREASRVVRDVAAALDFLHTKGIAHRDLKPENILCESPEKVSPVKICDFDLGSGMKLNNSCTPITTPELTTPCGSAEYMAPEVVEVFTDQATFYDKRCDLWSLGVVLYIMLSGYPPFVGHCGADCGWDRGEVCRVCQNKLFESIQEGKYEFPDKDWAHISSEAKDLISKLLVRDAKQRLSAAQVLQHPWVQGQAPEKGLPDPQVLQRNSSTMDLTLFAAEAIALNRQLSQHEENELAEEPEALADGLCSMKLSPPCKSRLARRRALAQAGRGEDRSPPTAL
Sequence of human full-lengt MKNK1 (Q9BUB5 other isoform, or with tags, fused parts or gaps T344D): as above

SMILES | IC50 (human full-lengt MKNK1; [1]) [nM] | IC50 (human full-length MKNK1; [2]) [nM] | IC50 (human full-lengt MKNK1; [3]) [nM] | IC50 (human full-length MKNK1; [3]) [nM]
OC[C@H]1C[C@H](Nc2ccc3ncc(-c4cc5ccccc5o4)n3n2)C1 [Example 1, (trans-3-{[3-(1-Benzofuran-2-yl)imidazo[1,2-b]pyridazin-6-yl]amino}cyclobutyl)methanol] | 8 | 11 |  | 
O[C@H]1C[C@H](CNc2ccc3ncc(-c4cc5ccccc5o4)n3n2)C1 [Example 2, trans-3-({[3-(1-Benzofuran-2-yl)imidazo[1,2-b]pyridazin-6-yl]amino}methyl)-cyclobutanol] |  |  | 9 | 21
O[C@H]1CC[C@H](Nc2ccc3ncc(-c4cc5ccccc5o4)n3n2)CC1 [Example 10, trans-4-{[3-(1-Benzofuran-2-yl)imidazo[1,2-b]pyridazin-6-yl]amino}cyclohexanol] | 12 | 31 |  | 
O[C@H]1C[C@H](Nc2ccc3ncc(-c4cc5cnccc5o4)n3n2)C1 [Example 11, trans-3-{[3-(Furo[3,2-c]pyridin-2-yl)imidazo[1,2-b]pyridazin-6-yl]amino}cyclobutanol] | 14 | 52 |  | 

Next, values leading:

IC50 (human full-lengt MKNK1; [1]) [nM] | IC50 (human full-length MKNK1; [2]) [nM] | IC50 (human full-lengt MKNK1; [3]) [nM] | IC50 (human full-length MKNK1; [3]) [nM] | SMILES
10 | 30 |  |  | O[C@H]1CCC[C@H]1Nc1ccc2ncc(-c3cc4ccccc4o3)n2n1 [Example 3, (1S,2R)-2-{[3-(1-Benzofuran-2-yl)imidazo[1,2-b]pyridazin-6-yl]amino}cyclopentanol]
126 | 94 |  |  | O[C@H]1CCCC[C@@H]1Nc1ccc2ncc(-c3cc4ccccc4o3)n2n1 [Example 8, (1S,2S)-2-{[3-(1-Benzofuran-2-yl)imidazo[1,2-b]pyridazin-6-yl]amino}cyclohexanol]
42 | 49 |  |  | O[C@@H]1CCCC[C@@H]1Nc1ccc2ncc(-c3cc4ccccc4o3)n2n1 [Example 5, (1R,2S)-2-{[3-(1-Benzofuran-2-yl)imidazo[1,2-b]pyridazin-6-yl]amino}cyclohexanol]
318 | 210 |  |  | O[C@@H]1CCCC[C@H]1Nc1ccc2ncc(-c3cc4ccccc4o3)n2n1 [Example 9, (1R,2R)-2-{[3-(1-Benzofuran-2-yl)imidazo[1,2-b]pyridazin-6-yl]amino}cyclohexanol]
24 | 66 |  |  | O[C@@H]1CCC[C@@H]1Nc1ccc2ncc(-c3cc4ccccc4o3)n2n1 [Example 7, (1R,2S)-2-{[3-(1-Benzofuran-2-yl)imidazo[1,2-b]pyridazin-6-yl]amino}cyclopentanol]
22 | 52 |  |  | O[C@H]1CCC[C@@H]1Nc1ccc2ncc(-c3cc4ccccc4o3)n2n1 [Example 6, (1S,2S)-2-{[3-(1-Benzofuran-2-yl)imidazo[1,2-b]pyridazin-6-yl]amino}cyclopentanol]
14 | 41 |  |  | O[C@@H]1CCC[C@H]1Nc1ccc2ncc(-c3cc4ccccc4o3)n2n1 [Example 4, (1R,2R)-2-{[3-(1-Benzofuran-2-yl)imidazo[1,2-b]pyridazin-6-yl]amino}cyclopentanol]
